Assay results reported in ChEMBL document CHEMBL5291721, “A preclinical secondary pharmacology resource illuminates target-adverse drug reaction associations of marketed drugs” (Nat Commun, 2023).

Legend:
Mu-type opioid receptor [1] = target: T1, Mu-type opioid receptor (Homo sapiens, UniProt P35372); assay: biochemical; assay type: functional
[2] = target: Glutamate receptor ionotropic, NMDA 1 (Rattus norvegicus, UniProt P35439)
[3] = target: Growth hormone secretagogue receptor type 1 (Homo sapiens, UniProt Q92847)
[4] = target: Kappa-type opioid receptor (Homo sapiens, UniProt P41145)
[5] = target: T2, Alpha-1A adrenergic receptor (Homo sapiens, UniProt P35348); assay type: functional, cell-based
T2 sequence (P35348 whole entry): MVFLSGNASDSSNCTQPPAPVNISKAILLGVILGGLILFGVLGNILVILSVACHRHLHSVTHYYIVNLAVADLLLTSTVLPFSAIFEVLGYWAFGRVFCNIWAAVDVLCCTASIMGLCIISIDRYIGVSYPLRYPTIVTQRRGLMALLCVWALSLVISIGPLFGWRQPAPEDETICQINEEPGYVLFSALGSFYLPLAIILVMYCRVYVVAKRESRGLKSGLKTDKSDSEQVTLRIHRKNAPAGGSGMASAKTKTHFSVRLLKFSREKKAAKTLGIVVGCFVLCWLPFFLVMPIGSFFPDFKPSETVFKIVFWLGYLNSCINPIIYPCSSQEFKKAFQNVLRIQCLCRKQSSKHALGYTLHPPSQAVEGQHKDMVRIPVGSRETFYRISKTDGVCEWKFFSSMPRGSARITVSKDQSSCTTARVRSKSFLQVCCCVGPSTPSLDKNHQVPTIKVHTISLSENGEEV

[6] = target: Delta-type opioid receptor (Homo sapiens, UniProt P41143)
[7] = target: T3, Cholecystokinin receptor type A (Homo sapiens, UniProt P32238)
T3 sequence (P32238 whole entry): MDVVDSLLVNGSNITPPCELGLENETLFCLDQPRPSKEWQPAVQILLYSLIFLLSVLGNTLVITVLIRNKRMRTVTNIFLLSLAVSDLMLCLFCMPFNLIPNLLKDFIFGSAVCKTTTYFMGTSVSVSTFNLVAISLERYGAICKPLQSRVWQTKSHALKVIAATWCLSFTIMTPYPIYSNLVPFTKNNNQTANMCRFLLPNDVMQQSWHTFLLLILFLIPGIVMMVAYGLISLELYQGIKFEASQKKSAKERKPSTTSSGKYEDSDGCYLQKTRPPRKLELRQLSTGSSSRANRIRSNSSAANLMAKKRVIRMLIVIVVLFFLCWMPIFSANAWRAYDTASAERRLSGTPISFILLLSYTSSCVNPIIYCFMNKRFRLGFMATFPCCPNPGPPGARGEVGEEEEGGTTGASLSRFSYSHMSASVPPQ

Histamine H3 receptor = Histamine H3 receptor (Homo sapiens, UniProt Q9Y5N1)
[8] = target: T4, Sodium-dependent noradrenaline transporter (Homo sapiens, UniProt P23975)
[9] = target: T5, Type-1 angiotensin II receptor (Homo sapiens, UniProt P30556)
T5 sequence (P30556 whole entry): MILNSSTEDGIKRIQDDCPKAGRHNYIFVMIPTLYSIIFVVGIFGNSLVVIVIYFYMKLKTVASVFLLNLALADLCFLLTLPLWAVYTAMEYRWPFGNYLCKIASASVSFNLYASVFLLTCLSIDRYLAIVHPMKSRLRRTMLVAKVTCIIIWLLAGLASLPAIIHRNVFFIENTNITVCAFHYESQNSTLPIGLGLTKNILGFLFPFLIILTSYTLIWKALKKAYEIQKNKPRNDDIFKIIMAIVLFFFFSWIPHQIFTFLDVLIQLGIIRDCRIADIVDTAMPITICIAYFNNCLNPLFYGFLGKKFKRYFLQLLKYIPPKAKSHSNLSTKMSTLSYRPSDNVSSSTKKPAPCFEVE

[10] = target: T6, Alpha-2B adrenergic receptor (Homo sapiens, UniProt P18089)
T6 sequence (P18089 whole entry): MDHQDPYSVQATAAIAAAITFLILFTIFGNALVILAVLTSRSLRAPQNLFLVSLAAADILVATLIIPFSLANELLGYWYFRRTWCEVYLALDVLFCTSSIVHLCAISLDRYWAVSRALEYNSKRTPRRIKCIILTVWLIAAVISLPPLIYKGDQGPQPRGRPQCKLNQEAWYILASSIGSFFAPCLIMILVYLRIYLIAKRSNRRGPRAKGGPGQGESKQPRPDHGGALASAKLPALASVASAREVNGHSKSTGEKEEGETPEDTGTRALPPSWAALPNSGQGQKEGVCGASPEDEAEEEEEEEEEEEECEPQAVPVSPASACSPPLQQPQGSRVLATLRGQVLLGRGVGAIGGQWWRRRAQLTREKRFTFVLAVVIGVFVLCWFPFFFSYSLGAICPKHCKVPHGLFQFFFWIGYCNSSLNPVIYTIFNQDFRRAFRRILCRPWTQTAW

D(3) dopamine receptor = D(3) dopamine receptor (Homo sapiens, UniProt P35462)
[11] = target: T4, Sodium-dependent noradrenaline transporter; remark: listed apart in the source
[12] = target: Prostaglandin G/H synthase 1 (Homo sapiens, UniProt P23219); assay type: functional
Mu-type opioid receptor [13] = target: T1, Mu-type opioid receptor
Note: assay procedure not described here.

Chain of Delta-type opioid receptor (P41143 whole entry): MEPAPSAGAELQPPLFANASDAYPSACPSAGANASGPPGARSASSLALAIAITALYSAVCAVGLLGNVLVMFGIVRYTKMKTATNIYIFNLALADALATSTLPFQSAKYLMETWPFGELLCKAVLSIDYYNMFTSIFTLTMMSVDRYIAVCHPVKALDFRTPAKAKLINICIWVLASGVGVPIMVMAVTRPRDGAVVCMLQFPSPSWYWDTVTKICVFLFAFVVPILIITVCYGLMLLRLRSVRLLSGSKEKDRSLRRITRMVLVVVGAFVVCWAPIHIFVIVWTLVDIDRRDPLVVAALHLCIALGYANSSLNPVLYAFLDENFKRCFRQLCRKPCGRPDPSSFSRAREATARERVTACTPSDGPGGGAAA
Chain of Growth hormone secretagogue receptor type 1 (Q92847 whole entry): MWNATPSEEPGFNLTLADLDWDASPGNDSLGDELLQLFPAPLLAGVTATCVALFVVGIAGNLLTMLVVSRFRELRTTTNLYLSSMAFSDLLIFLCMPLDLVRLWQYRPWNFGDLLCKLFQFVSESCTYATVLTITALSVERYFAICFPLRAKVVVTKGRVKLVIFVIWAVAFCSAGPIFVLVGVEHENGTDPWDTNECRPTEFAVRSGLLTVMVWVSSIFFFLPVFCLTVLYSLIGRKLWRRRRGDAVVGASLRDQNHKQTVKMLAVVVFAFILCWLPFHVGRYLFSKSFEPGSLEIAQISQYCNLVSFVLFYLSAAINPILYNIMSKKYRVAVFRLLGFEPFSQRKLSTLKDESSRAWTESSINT
Chain of Kappa-type opioid receptor (P41145 whole entry): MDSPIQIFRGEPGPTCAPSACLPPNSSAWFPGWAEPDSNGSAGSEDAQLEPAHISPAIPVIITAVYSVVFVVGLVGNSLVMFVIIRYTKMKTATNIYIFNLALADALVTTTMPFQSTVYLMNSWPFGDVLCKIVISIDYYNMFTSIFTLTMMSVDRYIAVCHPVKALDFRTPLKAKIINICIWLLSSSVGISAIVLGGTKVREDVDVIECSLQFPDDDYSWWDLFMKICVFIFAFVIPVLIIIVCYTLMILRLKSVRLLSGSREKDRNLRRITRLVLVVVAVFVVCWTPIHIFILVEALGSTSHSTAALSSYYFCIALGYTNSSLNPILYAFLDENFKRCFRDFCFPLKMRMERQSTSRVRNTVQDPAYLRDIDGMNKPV
T4 sequence (P23975 whole entry): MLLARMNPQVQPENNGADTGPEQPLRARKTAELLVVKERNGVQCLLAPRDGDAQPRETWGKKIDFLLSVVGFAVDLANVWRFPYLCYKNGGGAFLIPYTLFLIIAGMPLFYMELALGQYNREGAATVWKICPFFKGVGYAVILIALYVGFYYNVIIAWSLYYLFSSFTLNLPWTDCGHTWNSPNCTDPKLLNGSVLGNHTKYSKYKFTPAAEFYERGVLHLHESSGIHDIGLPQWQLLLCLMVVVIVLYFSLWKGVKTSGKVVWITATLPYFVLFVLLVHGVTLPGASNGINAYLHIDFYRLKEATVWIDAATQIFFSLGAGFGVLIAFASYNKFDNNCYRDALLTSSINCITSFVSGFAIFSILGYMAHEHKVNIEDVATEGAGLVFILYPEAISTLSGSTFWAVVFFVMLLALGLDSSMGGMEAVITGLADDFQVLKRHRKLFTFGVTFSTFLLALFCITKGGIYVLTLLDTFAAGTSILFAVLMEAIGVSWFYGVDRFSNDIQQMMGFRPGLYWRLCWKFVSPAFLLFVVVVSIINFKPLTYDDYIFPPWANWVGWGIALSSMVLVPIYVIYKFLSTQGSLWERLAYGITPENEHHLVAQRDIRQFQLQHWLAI
T1 sequence (P35372 whole entry): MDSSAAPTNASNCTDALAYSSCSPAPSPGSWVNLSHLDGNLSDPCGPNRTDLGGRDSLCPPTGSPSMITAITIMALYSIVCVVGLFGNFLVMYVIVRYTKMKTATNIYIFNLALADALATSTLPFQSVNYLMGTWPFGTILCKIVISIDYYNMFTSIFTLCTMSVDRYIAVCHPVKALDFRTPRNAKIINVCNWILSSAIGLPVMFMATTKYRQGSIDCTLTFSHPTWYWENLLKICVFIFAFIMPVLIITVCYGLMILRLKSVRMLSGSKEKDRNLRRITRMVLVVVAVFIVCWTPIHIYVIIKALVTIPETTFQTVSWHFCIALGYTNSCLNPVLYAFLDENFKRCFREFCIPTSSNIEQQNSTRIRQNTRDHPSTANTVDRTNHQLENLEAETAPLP
Chain of Prostaglandin G/H synthase 1 (P23219 whole entry): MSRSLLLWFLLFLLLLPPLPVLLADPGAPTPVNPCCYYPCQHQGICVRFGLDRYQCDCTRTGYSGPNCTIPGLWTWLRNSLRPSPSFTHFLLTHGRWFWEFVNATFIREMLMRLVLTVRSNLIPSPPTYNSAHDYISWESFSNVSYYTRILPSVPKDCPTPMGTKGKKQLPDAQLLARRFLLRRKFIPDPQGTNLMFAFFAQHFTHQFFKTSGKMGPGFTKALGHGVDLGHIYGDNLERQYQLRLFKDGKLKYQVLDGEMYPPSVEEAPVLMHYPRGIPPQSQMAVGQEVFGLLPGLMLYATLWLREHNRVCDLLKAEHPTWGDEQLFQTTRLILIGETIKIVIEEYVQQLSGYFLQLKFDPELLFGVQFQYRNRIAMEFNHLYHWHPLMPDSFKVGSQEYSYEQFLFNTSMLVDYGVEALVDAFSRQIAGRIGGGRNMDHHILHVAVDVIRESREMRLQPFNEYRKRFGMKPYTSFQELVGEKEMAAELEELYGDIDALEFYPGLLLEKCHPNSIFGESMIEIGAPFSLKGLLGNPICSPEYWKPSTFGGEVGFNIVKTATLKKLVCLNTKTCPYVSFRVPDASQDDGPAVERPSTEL
Chain of D(3) dopamine receptor (P35462 whole entry): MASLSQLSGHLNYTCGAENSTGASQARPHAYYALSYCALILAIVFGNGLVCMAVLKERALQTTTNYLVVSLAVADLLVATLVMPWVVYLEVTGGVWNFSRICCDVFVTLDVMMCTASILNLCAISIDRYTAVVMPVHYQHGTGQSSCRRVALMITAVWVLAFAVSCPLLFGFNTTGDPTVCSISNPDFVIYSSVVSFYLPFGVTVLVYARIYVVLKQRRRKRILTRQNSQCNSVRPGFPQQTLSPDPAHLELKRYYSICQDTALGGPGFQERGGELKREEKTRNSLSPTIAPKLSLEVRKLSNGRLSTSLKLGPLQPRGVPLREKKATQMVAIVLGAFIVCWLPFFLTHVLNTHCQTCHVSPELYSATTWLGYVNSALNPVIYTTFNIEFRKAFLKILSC
Chain of Histamine H3 receptor (Q9Y5N1 whole entry): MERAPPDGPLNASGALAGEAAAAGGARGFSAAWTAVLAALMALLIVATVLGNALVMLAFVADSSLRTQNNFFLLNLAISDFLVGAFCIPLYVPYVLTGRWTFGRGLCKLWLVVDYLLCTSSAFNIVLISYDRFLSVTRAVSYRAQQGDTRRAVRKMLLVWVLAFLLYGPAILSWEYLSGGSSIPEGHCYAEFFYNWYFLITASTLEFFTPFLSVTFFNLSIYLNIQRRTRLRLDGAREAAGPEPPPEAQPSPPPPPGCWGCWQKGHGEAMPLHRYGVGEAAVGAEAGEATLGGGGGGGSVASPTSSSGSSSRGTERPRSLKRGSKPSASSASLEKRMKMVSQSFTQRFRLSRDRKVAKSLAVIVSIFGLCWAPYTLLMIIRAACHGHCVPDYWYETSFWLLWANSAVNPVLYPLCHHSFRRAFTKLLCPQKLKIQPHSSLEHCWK

Row | SMILES | AC50 (Mu-type opioid receptor [1]) [µM] | AC50 [2] [µM] | AC50 [3] [µM] | AC50 [4] [µM] | AC50 [5] [µM] | AC50 [6] [µM] | AC50 [7] [µM] | AC50 (Histamine H3 receptor) [µM] | AC50 [8] [µM] | AC50 [9] [µM] | AC50 [10] [µM] | AC50 (D(3) dopamine receptor) [µM] | AC50 [11] [µM] | AC50 [12] [µM] | AC50 (Mu-type opioid receptor [13]) [µM]
1 | C[N+](C)(C)CCOP(=O)([O-])OC[C@H](O)CO | > 30 | > 30 | > 30 | > 30 | > 30 | > 30 | > 30 | > 30 | > 30 | > 30 | – | – | – | – | –
2 | CN(C)C/C=C/C(=O)Nc1cc2c(Nc3ccc(F)c(Cl)c3)ncnc2cc1O[C@H]1CCOC1 [AFATINIB] | > 30 | > 30 | > 30 | > 30 | > 30 | > 30 | 11 | > 30 | > 30 | > 30 | 0.87 | – | – | – | –
3 | CC(=O)OC[C@H]1O[C@@H](n2ncc(=O)[nH]c2=O)[C@H](OC(C)=O)[C@@H]1OC(C)=O [AZARIBINE] | – | – | – | – | – | – | – | – | – | – | – | > 30 | > 30 | > 30 | > 30
4 | CC1=C(C(=O)OC(C)C)C(c2cccc([N+](=O)[O-])c2)C(C(=O)OC2CN(C(c3ccccc3)c3ccccc3)C2)=C(N)N1 (configuration not stated) [AZELNIDIPINE] | > 30 | > 30 | > 30 | > 30 | 26 | > 30 | > 30 | > 30 | 5.8 | 12 | > 30 | – | – | – | –
5 | O=C(O)COCCN1CCN(C(c2ccccc2)c2ccc(Cl)cc2)CC1 (configuration not stated) [CETIRIZINE] | – | > 10 | > 30 | > 10 | > 30 | > 30 | > 30 | > 10 | – | > 30 | > 10 | – | – | – | –
6 | NC[C@H]1CC[C@H](C(=O)Oc2ccc(CCC(=O)O)cc2)CC1 [CETRAXATE] | > 30 | > 30 | – | > 30 | > 30 | > 30 | – | – | – | – | – | > 30 | > 30 | > 30 | > 30
7 | C=C1CC[C@H](O)C/C1=C/C=C1\CCC[C@]2(C)[C@@H]([C@H](C)CCCC(C)C)CC[C@@H]12 [CHOLECALCIFEROL] | – | – | – | – | – | – | – | – | – | – | – | 15.6 | > 10 | 12.3 | > 30
8 | CN[C@]1(c2ccccc2Cl)CCCCC1=O [ESKETAMINE] | > 30 | 0.79 | > 30 | 13 | > 30 | > 30 | > 30 | > 30 | > 30 | > 30 | – | – | – | – | –
9 | CC(O)(P(=O)(O)O)P(=O)(O)O [ETIDRONIC ACID] | – | – | – | – | – | – | – | – | – | – | – | > 30 | > 30 | > 30 | > 30
10 | CNCCc1ccc(OC(=O)C(C)C)c(OC(=O)C(C)C)c1 [IBOPAMINE] | > 30 | > 30 | > 30 | > 30 | – | > 30 | > 30 | > 30 | > 30 | > 30 | > 30 | – | – | – | –
11 | CCOC(=O)C1=C(C)NC(C)=C(C(=O)OCC)C1c1ccccc1/C=C/C(=O)OC(C)(C)C [LACIDIPINE] | > 30 | > 30 | > 30 | 8.6 | > 30 | > 30 | > 30 | > 30 | > 30 | > 30 | – | – | – | – | –
12 | COC(=O)C1=C(C)NC(C)=C(C(=O)OCCN2CCN(C(c3ccccc3)c3ccccc3)CC2)C1c1cccc([N+](=O)[O-])c1 (configuration not stated) [MANIDIPINE 6300] | > 30 | > 30 | > 30 | 7.9 | > 30 | > 30 | > 30 | > 30 | > 30 | > 30 | > 30 | – | – | – | –
13 | O=C1c2cccc3c2[C@H](CCC3)CN1[C@@H]1CN2CCC1CC2 [PALONOSETRON] | > 30 | > 30 | > 30 | > 30 | 29 | > 30 | > 30 | > 30 | > 30 | > 30 | > 30 | – | – | – | –
14 | OC[C@H]1O[C@@H](n2cnc3c2NC=NC[C@H]3O)C[C@@H]1O [PENTOSTATIN] | > 30 | > 30 | > 30 | > 30 | – | > 30 | > 30 | > 30 | > 30 | > 30 | > 30 | – | – | – | –
15 | NNCCc1ccccc1 [PHENELZINE] | – | – | – | – | – | – | – | – | – | – | – | > 30 | 10.8 | 0.5 | > 30
16 | Cc1cccc(C)c1NC(=O)CC12CCCN1CCC2 [PILSICAINIDE] | > 30 | > 30 | > 30 | > 30 | > 30 | > 30 | > 30 | > 30 | > 30 | > 30 | > 30 | – | – | – | –
17 | CCCN1CC(NS(=O)(=O)N(CC)CC)CC2Cc3c(O)cccc3CC21 (configuration not stated) [QUINAGOLIDE] | > 30 | > 30 | > 30 | 1.7 | – | > 30 | > 30 | > 30 | 21 | > 30 | 11 | – | – | – | –
18 | C[C@]12CCC(=O)C[C@@H]1CC[C@@H]1[C@@H]2CC[C@]2(C)[C@@H](O)CC[C@@H]12 [STANOLONE] | > 30 | > 30 | > 30 | > 30 | > 30 | > 30 | > 30 | > 30 | > 30 | > 30 | – | – | – | – | –
19 | O=C1OC(OC(=O)c2cccnc2Nc2cccc(C(F)(F)F)c2)c2ccccc21 (configuration not stated) [TALNIFLUMATE] | > 30 | > 30 | > 30 | > 30 | – | > 30 | > 30 | > 30 | > 30 | > 30 | > 30 | – | – | – | –
20 | Cc1ccc(C(=O)C(C)CN2CCCCC2)cc1 (configuration not stated) [TOLPERISONE] | – | – | – | – | – | – | – | – | – | – | – | 2.52 | > 30 | > 30 | > 30
21 | COc1ccc2c(C(=S)N(C)CC(=O)O)cccc2c1C(F)(F)F [TOLRESTAT] | – | – | – | – | – | – | – | – | – | – | – | > 30 | > 30 | > 30 | > 30
22 | CCOC(=O)c1c(CSc2ccccc2)n(C)c2cc(Br)c(O)c(CN(C)C)c12 [UMIFENOVIR] | > 30 | > 30 | > 30 | > 30 | – | > 30 | > 30 | > 30 | 21 | > 30 | 26 | – | – | – | –
